Results: the CheMixHub ionic liquid set
± gives the uncertainty stated by the source.

Assay: xn = mol fraction of the nth substance listed

[I-].[Li+] + CCCC[n+]1ccn(C)c1.N#C[N-]C#N
electrical conductivity [S/m], 101 kPa
Conditions | x2 = 0.917 | x2 = 0.9294 | x2 = 0.9462 | x2 = 0.9628 | x2 = 0.9799
288.15 K | – | 0.389 ± 0.039 | 0.465 ± 0.047 | 0.506 ± 0.051 | 0.569 ± 0.057
298.15 K | 0.577 ± 0.058 | 0.643 ± 0.065 | 0.749 ± 0.075 | 0.809 ± 0.081 | 0.892 ± 0.09
333.15 K | 1.92 ± 0.19 | 2.04 ± 0.2 | 2.28 ± 0.23 | 2.33 ± 0.23 | 2.56 ± 0.26

COCCOC + CCCC[n+]1ccn(C)c1.O=S(=O)([N-]S(=O)(=O)C(F)(F)F)C(F)(F)F
Conditions | electrical conductivity [S/m]
294.5 K, 100 kPa, x2 = 0.02332 | 0.62 ± 0.06

CCOCCO + CCCC[n+]1ccn(C)c1.[Br-]
100 kPa, x2 = 0
Conditions | viscosity [mPa·s]
298.15 K | 1.81 ± 0.18
303.15 K | 1.61 ± 0.16
308.15 K | 1.45 ± 0.15
313.15 K | 1.33 ± 0.13

CCCC[n+]1ccn(C)c1.O=[N+]([O-])[O-] + CCCC[n+]1ccn(C)c1.[Cl-]
Conditions | viscosity [mPa·s]
293 K, 101 kPa, x2 = 0.2549 | 223 ± 14

CCCC[n+]1ccn(C)c1C.F[B-](F)(F)F + CCCCn1cc[n+](C)c1C.O=S(=O)([N-]S(=O)(=O)C(F)(F)F)C(F)(F)F
100 kPa
Conditions | electrical conductivity [S/m]
313.15 K, x2 = 0.5 | 0.313 ± 0.019
318.15 K, x2 = 0.3 | 0.332 ± 0.02
318.15 K, x2 = 0.5 | 0.388 ± 0.023
318.15 K, x2 = 0.8 | 0.493 ± 0.03
323.15 K, x2 = 0 | 0.202 ± 0.012
323.15 K, x2 = 0.2 | 0.398 ± 0.024
323.15 K, x2 = 0.3 | 0.415 ± 0.025
323.15 K, x2 = 0.4 | 0.445 ± 0.027
328.15 K, x2 = 0 | 0.26 ± 0.016
333.15 K, x2 = 0.6 | 0.687 ± 0.041
338.15 K, x2 = 0 | 0.447 ± 0.027
338.15 K, x2 = 0.3 | 0.734 ± 0.044
338.15 K, x2 = 0.4 | 0.774 ± 0.046
338.15 K, x2 = 0.6 | 0.806 ± 0.048
348.15 K, x2 = 0.4 | 1.04 ± 0.062
348.15 K, x2 = 0.8 | 1.23 ± 0.074
348.15 K, x2 = 0.9 | 1.4 ± 0.084
353.15 K, x2 = 0.8 | 1.32 ± 0.079
358.15 K, x2 = 0.1 | 1.33 ± 0.08
358.15 K, x2 = 0.5 | 1.39 ± 0.083
358.15 K, x2 = 0.7 | 1.42 ± 0.085
358.15 K, x2 = 0.8 | 1.49 ± 0.089
363.15 K, x2 = 0.5 | 1.56 ± 0.094

CCCC[n+]1ccn(C)c1.O=[N+]([O-])[O-] + CCCO
101 kPa
Conditions | viscosity [mPa·s]
288.15 K, x2 = 0.121 | 176 ± 10
288.15 K, x2 = 0.471 | 34.53 ± 0.51
293.15 K, x2 = 0.673 | 11.32 ± 0.15
298.15 K, x2 = 0.673 | 9.79 ± 0.12
308.15 K, x2 = 0.471 | 16.82 ± 0.23
313.15 K, x2 = 0.364 | 21.01 ± 0.3
318.15 K, x2 = 0.471 | 12.54 ± 0.17
318.15 K, x2 = 0.554 | 9.21 ± 0.12
323.15 K, x2 = 0.121 | 31.91 ± 0.49
323.15 K, x2 = 0.471 | 10.97 ± 0.14
328.15 K, x2 = 0.471 | 9.68 ± 0.13
328.15 K, x2 = 0.755 | 3.24 ± 0.04
328.15 K, x2 = 0.857 | 2.14 ± 0.02
333.15 K, x2 = 0.554 | 6.37 ± 0.08

CC[n+]1ccn(CCOC)c1.N#C[S-] + CCCO
viscosity [mPa·s], 100 kPa
Conditions | x1 = 0.1001 | x1 = 0.2 | x1 = 0.3001 | x1 = 0.4001 | x1 = 0.5001 | x1 = 0.5719 | x1 = 0.701 | x1 = 0.7997 | x1 = 0.8987 | x1 = 1
288.15 K | 3.83 ± 0.21 | 5.71 ± 0.32 | 8.65 ± 0.49 | 14.3 ± 0.8 | 20 ± 1.1 | 28.2 ± 1.6 | 39.1 ± 2.2 | 55.7 ± 3.1 | 71.5 ± 4 | 93.1 ± 5.3
293.15 K | 3.38 ± 0.19 | 4.99 ± 0.28 | 7.53 ± 0.42 | 12.15 ± 0.68 | 16.78 ± 0.93 | 23.3 ± 1.3 | 31.8 ± 1.8 | 44.1 ± 2.4 | 56.7 ± 3.1 | 70.8 ± 3.9
298.15 K | 2.99 ± 0.17 | 4.4 ± 0.24 | 6.62 ± 0.37 | 10.43 ± 0.58 | 13.84 ± 0.77 | 19.7 ± 1.1 | 26.2 ± 1.4 | 35.7 ± 2 | 45.6 ± 2.5 | 55.8 ± 3
303.15 K | 2.66 ± 0.15 | 3.94 ± 0.22 | 5.88 ± 0.33 | 9.06 ± 0.5 | 11.68 ± 0.65 | 16.75 ± 0.92 | 21.9 ± 1.2 | 29.3 ± 1.6 | 37.4 ± 2.1 | 44.3 ± 2.4
308.15 K | 2.39 ± 0.13 | 3.52 ± 0.2 | 5.25 ± 0.29 | 7.95 ± 0.44 | 10.04 ± 0.56 | 13.92 ± 0.77 | 19.2 ± 1.1 | 24.4 ± 1.4 | 31.1 ± 1.7 | 36 ± 2
313.15 K | 2.15 ± 0.12 | 3.16 ± 0.18 | 4.72 ± 0.26 | 7.03 ± 0.39 | 8.8 ± 0.49 | 11.81 ± 0.65 | 16.05 ± 0.88 | 20.6 ± 1.1 | 26 ± 1.4 | 29.7 ± 1.6
318.15 K | 1.94 ± 0.11 | 2.84 ± 0.16 | 4.24 ± 0.24 | 6.22 ± 0.34 | 7.8 ± 0.43 | 10.16 ± 0.56 | 13.47 ± 0.74 | 17.99 ± 0.99 | 22 ± 1.2 | 24.9 ± 1.4

O=C(O)CCl + CCC[N+](CCC)(CCC)CCC.[Br-]
100 kPa, x2 = 0.333
Conditions | electrical conductivity [S/m] | viscosity [mPa·s]
308.15 K | 0.136 ± 0.0021 | 61.13 ± 0.92
328.15 K | 0.345 ± 0.0042 | 21.57 ± 0.32

CCCC[n+]1ccn(C)c1.O=[N+]([O-])[O-] + CCO
101 kPa
Conditions | viscosity [mPa·s]
283.15 K, x2 = 0.447 | 35.48 ± 0.69
288.15 K, x2 = 0.352 | 51.47 ± 0.62
288.15 K, x2 = 0.663 | 9.58 ± 0.11
288.15 K, x2 = 0.748 | 6.39 ± 0.08
293.15 K, x2 = 0.254 | 67.9 ± 1.3
293.15 K, x2 = 0.4 | 31.2 ± 3.1
293.15 K, x2 = 0.748 | 5.61 ± 0.07
298.15 K, x2 = 0 | 159 ± 77
298.15 K, x2 = 0.11 | 105.5 ± 3.7
298.15 K, x2 = 0.2 | 58.3 ± 3.8
298.15 K, x2 = 0.663 | 7.62 ± 0.09
298.15 K, x2 = 0.748 | 4.83 ± 0.06
303.15 K, x2 = 0.447 | 16.15 ± 0.22
303.15 K, x2 = 0.6 | 10.1 ± 1.1
303.15 K, x2 = 0.852 | 2.46 ± 0.03
308.15 K, x2 = 0.11 | 59.6 ± 1
308.15 K, x2 = 0.2 | 38.6 ± 3.8
308.15 K, x2 = 0.352 | 21.4 ± 0.31
308.15 K, x2 = 0.663 | 5.77 ± 0.07
313.15 K, x2 = 0.11 | 47.55 ± 0.76
313.15 K, x2 = 0.2 | 32.1 ± 3.2
313.15 K, x2 = 0.254 | 29.2 ± 0.43
318.15 K, x2 = 0.2 | 26.9 ± 2.7
318.15 K, x2 = 0.254 | 24.53 ± 0.35
318.15 K, x2 = 0.4 | 14.2 ± 1.4
318.15 K, x2 = 0.852 | 1.9 ± 0.02
328.15 K, x2 = 0.447 | 7.87 ± 0.1
333.15 K, x2 = 0.254 | 15.52 ± 0.22
